Patent US7790947B2 (priority 2001, dated 2010)

How the values were obtained:
hemoglobin = hemoglobin (Homo sapiens, UniProt P68871); details: cited from earlier work
TSS-1 production = assay: Inhibition of TSS-1 production by salt or acid residue in absorbent foam; type: cell-based, S. aureus; details: residual salt or acid in dried foam, between 0.1% and 10% weight percent of foam
[1] = tested on: TSST-1 toxin production by S. aureus; details: cited from earlier work
TSST-1 toxin = TSST-1 toxin (Staphylococcus aureus, UniProt P06886); details: mechanism unknown; cited from earlier work
Chain of TSST-1 toxin (P06886 41-234 limits assumed): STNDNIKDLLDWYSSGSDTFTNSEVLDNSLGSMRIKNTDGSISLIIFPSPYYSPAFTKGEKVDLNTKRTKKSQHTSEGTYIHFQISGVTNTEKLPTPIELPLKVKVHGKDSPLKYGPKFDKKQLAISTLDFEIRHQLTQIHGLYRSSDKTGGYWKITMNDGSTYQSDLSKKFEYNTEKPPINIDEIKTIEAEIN

Chain of hemoglobin (P68871 2-147 limits assumed): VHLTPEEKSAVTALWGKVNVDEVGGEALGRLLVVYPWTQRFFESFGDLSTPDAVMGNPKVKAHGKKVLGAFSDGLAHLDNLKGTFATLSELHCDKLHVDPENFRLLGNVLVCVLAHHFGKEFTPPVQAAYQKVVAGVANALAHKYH
Chain of hemoglobin (P69905 2-142 partner limits assumed): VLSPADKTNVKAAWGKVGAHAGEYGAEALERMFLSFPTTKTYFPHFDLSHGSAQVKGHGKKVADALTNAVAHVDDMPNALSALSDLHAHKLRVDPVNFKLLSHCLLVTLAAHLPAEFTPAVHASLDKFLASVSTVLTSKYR

Compound | inhibition of TSS-1 production (TSS-1 production) | effect on toxin (TSST-1) production by S. aureus [1] | further results
O=C(O)C(COP(=O)(O)O)OP(=O)(O)O (stereo not drawn) [BPG, 2,3-bisphosphoglycerate] | – | – | lowering of the affinity of oxygen for hemoglobin (factor) (hemoglobin): 26
[Ca+2].[Cl-].[Cl-] [CaCl2] | inhibit TSS-1 production | – | –
[Cl-].[Cl-].[Mg+2] [MgCl2] | inhibit TSS-1 production | – | –
O=C1O[C@H]([C@@H](O)CO)C(O)=C1O [ascorbic acid] | inhibit TSS-1 production | reduce toxin production and/or deactiviate the toxin TSST-1 | deactivation of the toxin (TSST-1 toxin): deactivates the toxin
OCC(O)CO [glycerol] | – | reduce toxin production and/or deactiviate the toxin TSST-1 | –
O=C1O[C@H]([C@@H](O)CO)C([O-])=C1O.[Na+] [sodium ascorbate] | inhibit TSS-1 production | – | –
tocopherol | – | reduce toxin production and/or deactiviate the toxin TSST-1 | –
